Measurements taken from ChEMBL document CHEMBL5042502, “Discovery of Potent and Selective 2-(Benzylthio)pyrimidine-based DCN1-UBC12 Inhibitors for Anticardiac Fibrotic Effects” (J Med Chem, 2022).
Activity calls are given as the source filed them.

Legend:
[1] = tested on: Fibroblast of cardiac tissue; assay: Effect on Ang II-induced in Cul4B neddylation in mouse cardiac fibroblast at 1 uM preincubated for 2 hrs followed by Ang-II stimulation and further incubated for 24 hrs by western blot analysis; type: functional, cell-based; settings: time 26.0 hrs
[2] = Cytotoxicity against Sprague-Dawley rat cardiac fibroblast incubated for 24 hrs by MTT assay; type: toxicity, cell-based, Fibroblast of cardiac tissue; settings: cardiac fibroblasts
DCN1-like protein 1 [3] = target: T1, DCN1-like protein 1 (Homo sapiens, UniProt Q96GG9); assay: Binding affinity to […] DCN1 (unknown origin) assessed as dissociation constant incubated for upto 180 secs by label-free biolayer interferometry assay
Target sequence in this assay (Q96GG9 whole entry): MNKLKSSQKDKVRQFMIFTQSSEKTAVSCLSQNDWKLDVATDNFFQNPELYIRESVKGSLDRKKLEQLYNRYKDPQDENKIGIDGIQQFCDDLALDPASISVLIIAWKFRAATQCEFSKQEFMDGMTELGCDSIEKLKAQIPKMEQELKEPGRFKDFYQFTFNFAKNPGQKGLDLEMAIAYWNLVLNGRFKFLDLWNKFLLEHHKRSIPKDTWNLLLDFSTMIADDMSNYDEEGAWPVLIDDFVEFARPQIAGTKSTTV

DCN1-like protein 1 [4] = target: T1, DCN1-like protein 1; assay: Binding affinity to DCN1 (unknown origin) assessed as inhibitory constant
Target sequence in this assay (Q96GG9 whole entry): as above

DCN1-like protein 2 = DCN1-like protein 2 (Homo sapiens, UniProt Q6PH85); assay: Binding affinity to DCN2 (unknown origin) assessed as inhibitory constant
Chain of DCN1-like protein 2 (Q6PH85 whole entry): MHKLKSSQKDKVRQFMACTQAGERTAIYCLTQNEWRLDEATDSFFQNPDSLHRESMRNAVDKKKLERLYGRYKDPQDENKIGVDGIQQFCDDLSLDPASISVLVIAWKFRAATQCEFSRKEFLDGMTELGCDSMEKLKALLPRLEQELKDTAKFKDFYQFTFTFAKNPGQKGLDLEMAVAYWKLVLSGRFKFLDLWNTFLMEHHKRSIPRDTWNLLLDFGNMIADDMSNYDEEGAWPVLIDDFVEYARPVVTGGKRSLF

DCN1-like protein 4 = target: T2, DCN1-like protein 4 (Homo sapiens, UniProt Q92564); assay: Binding affinity to DCN4 (unknown origin) assessed as inhibitory constant
T2 sequence (Q92564 whole entry): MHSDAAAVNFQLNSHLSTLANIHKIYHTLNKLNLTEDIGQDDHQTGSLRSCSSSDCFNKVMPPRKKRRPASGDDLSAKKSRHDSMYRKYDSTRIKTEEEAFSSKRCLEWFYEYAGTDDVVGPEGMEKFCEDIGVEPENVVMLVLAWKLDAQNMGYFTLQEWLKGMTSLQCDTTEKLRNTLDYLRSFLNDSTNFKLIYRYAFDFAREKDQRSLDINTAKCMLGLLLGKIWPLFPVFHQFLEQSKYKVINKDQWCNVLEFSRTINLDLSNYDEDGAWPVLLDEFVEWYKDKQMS

Homo sapiens = species: Homo sapiens; assay: Inhibition of NEDD8-UBC12 (unknown origin) interaction in presence of ATP at 100 uM by densitometry; settings: time 10.0 min
Cardiac fibroblast [5] = assay: Inhibition of DCN1 in Sprague-Dawley rat cardiac fibroblast assessed as suppression in DCN1-UBC12 interaction by measuring reduction in UBC12 level at 10 uM incubated for 5 hrs co-incubated with DCN1 antibody by co-immunoprecipitation pull down assay; type: cell-based
Cardiac fibroblast [6] = assay: Inhibition of DCN1 in Ang II-treated Sprague-Dawley rat cardiac fibroblast assessed as inhibition of cell proliferation preincubated for 2 hrs followed by Ang-II stimulation and further incubated for 24 hrs by MTT assay; type: cell-based; settings: dose 0.1-3 µM, time 26.0 hrs
Cardiac fibroblast [7] = assay: Inhibition of DCN1 in TGF-beta-treated Sprague-Dawley rat cardiac fibroblast assessed as inhibition of cell proliferation at 0.1 to 3 uM preincubated for 2 hrs followed by TGF-beta stimulation and further incubated for 24 hrs by MTT assay; type: cell-based; settings: dose 0.1-3 µM, time 26.0 hrs
Cardiac fibroblast [8] = assay: Inhibition of DCN1 in Ang II-treated Sprague-Dawley rat cardiac fibroblast assessed as inhibited cell migration at 0.1 to 3 uM incubated for 24 hrs stained with crystal violet by transwell migration assay; type: cell-based; settings: Sprague-Dawle, dose 0.1-3 µM
[9] = tested on: Fibroblast of cardiac tissue; assay: Inhibition of differentiation of Ang II-induced mouse cardiac fibroblast to myofibroblast assessed as decrease in alpha-SMA expression levels at 1 uM preincubated for 2 hrs followed by Ang-II stimulation and further incubated for 24 hrs by immunofluorescence assay; type: functional, cell-based; settings: time 26.0 hrs
[10] = tested on: Fibroblast of cardiac tissue; assay: Reversal of Ang II-induced increase in collagen I secretion in mouse cardiac fibroblast at 1 uM preincubated for 2 hrs followed by Ang-II stimulation and further incubated for 24 hrs by western blot analysis; type: functional, cell-based; settings: time 26.0 hrs
[11] = tested on: Fibroblast of cardiac tissue; assay: Reversal of Ang II-induced increase in collagen III secretion in mouse cardiac fibroblast at 1 uM preincubated for 2 hrs followed by Ang-II stimulation and further incubated for 24 hrs by western blot analysis; type: functional, cell-based; settings: time 26.0 hrs
[12] = tested on: Fibroblast of cardiac tissue; assay: Reversal of Ang II-induced decrease in Nrf2 secretion in mouse cardiac fibroblast at 1 uM preincubated for 2 hrs followed by Ang-II stimulation and further incubated for 24 hrs by western blot analysis; type: functional, cell-based; settings: time 26.0 hrs
[13] = tested on: Fibroblast of cardiac tissue; assay: Effect on Ang II-induced in Cul4A neddylation in mouse cardiac fibroblast at 1 uM preincubated for 2 hrs followed by Ang-II stimulation and further incubated for 24 hrs by western blot analysis; type: functional, cell-based; settings: time 26.0 hrs
[14] = tested on: Fibroblast of cardiac tissue; assay: Effect on Ang II-induced in Cul5 neddylation in mouse cardiac fibroblast at 1 uM preincubated for 2 hrs followed by Ang-II stimulation and further incubated for 24 hrs by western blot analysis; type: functional, cell-based; settings: time 26.0 hrs
[15] = tested on: Fibroblast of cardiac tissue; assay: Effect on Cul4A neddylation in mouse cardiac fibroblast at 1 uM preincubated for 2 hrs by Western blot analysis; type: functional, cell-based
[16] = tested on: Fibroblast of cardiac tissue; assay: Effect on Cul4B neddylation in mouse cardiac fibroblast at 1 uM preincubated for 2 hrs by Western blot analysis; type: functional, cell-based
[17] = tested on: Fibroblast of cardiac tissue; assay: Antifibrotic effect in SD rat cardiac fibroblast transfected with DCN1 siRNA assessed as effect on collagen III expression at 1 uM preincubated for 2 hrs followed by Ang II-stimulation and further incubated for 24 hrs by western blot analysis; type: functional, cell-based; settings: time 26.0 hrs
[18] = Toxicity in 24 hr starved C57BL/6 mouse assessed as animal survival at 2 g/Kg administered via gavage measured upto 2 weeks; settings: in vivo, po, 2000 mg/kg
[19] = Toxicity in 24 hr starved C57BL/6 mouse assessed as change in body weight at 2 g/Kg administered via gavage measured upto 2 weeks; settings: in vivo, po, 2000 mg/kg
[20] = Toxicity in 24 hr starved C57BL/6 mouse assessed as change in cardiac function at 2 g/Kg administered via gavage measured after 2 weeks by echocardiography; settings: in vivo, po, 2000 mg/kg
[21] = Toxicity in 24 hr starved C57BL/6 mouse assessed as pathological change in heart at 2 g/Kg administered via gavage measured after 2 weeks by H and E staining based histopathological analysis; type: tissue-based; settings: in vivo, po, 2000 mg/kg
[22] = Toxicity in 24 hr starved C57BL/6 mouse assessed as pathological change in liver at 2 g/Kg administered via gavage measured after 2 weeks by H and E staining based histopathological analysis; type: tissue-based; settings: in vivo, po, 2000 mg/kg
[23] = Toxicity in 24 hr starved C57BL/6 mouse assessed as pathological change in spleen at 2 g/Kg administered via gavage measured after 2 weeks by H and E staining based histopathological analysis; type: tissue-based; settings: in vivo, po, 2000 mg/kg
[24] = Toxicity in 24 hr starved C57BL/6 mouse assessed as pathological change in lungs at 2 g/Kg administered via gavage measured after 2 weeks by H and E staining based histopathological analysis; settings: in vivo, po, 2000 mg/kg
[25] = Toxicity in 24 hr starved C57BL/6 mouse assessed as pathological change in kidney at 2 g/Kg administered via gavage measured after 2 weeks by H and E staining based histopathological analysis; type: tissue-based; settings: in vivo, po, 2000 mg/kg
DCN1-like protein 1 [26] = target: T1, DCN1-like protein 1
Target sequence in this assay (Q96GG9 whole entry, looked up): as the sequence (Q96GG9 whole entry) above
Description: Binding affinity to DCN1 (unknown origin) assessed as change in entropy by MM-PBSA method

COc1cc(-c2nc(SCc3ccc(Cl)cc3)nc(Sc3nnnn3C)c2C#N)cc(OC)c1OC
active: Activity [1] | inhibition (Cardiac fibroblast [5]) | inhibition (Cardiac fibroblast [6]) | inhibition (Cardiac fibroblast [7]) Dose-Dependent Effect | inhibition (Cardiac fibroblast [8]) | inhibition [9] | Activity [10] | Activity [11] | Activity [12] | Activity [13] | Activity [14] | Activity [15] | Activity [16]
22.4 µM: Ki (DCN1-like protein 4)
0.026 µM: Kd (DCN1-like protein 1 [3])
18.8 µM: Ki (DCN1-like protein 2)
inactive: inhibition (Homo sapiens) | inhibition [17]
Non-Toxic: Activity [18] | Activity [19] | Activity [20] | Activity [21] | Activity [22] | Activity [23] | Activity [24] | Activity [25]
11.2 kcal/mol: -TdeltaS (DCN1-like protein 1 [26])
27.3 µM: IC50 at 24 h [2]
0.00826 µM: Ki (DCN1-like protein 1 [4])
